Experimental data as given in US9481654B2, “Compositions and methods for inhibition of the JAK pathway” (Rigel Pharmaceuticals, Inc., priority 2006, dated 2016).

Key:
[1] = tested on: IL-4 stimulated CD23 upregulation in human Ramos B cells (JAK-1/JAK-3, Stat-6); experiment: Assay for Ramos B-Cell Line Stimulated with IL-4 (CD23 upregulation, FACS); type: cell-based; conditions: Table III Example 3
How it was run: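 Flow cytometry of CD23 staining after 20-24 h IL-4 stimulation (50 units/mL final) of human Ramos B cells in RPMI with 5% serum. Cells, 5×10^4 per point, received compound or DMSO vehicle for 1 h at 37° C prior to stimulation.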

[2] = tested on: primary human T-cells (IL-2 induced proliferation, JAK-1/JAK-3, Stat-5); experiment: Primary Human T-Cell Proliferation Assay Stimulated with IL-2 (CellTiter-Glo); type: cell-based; conditions: Table III Example 4
How it was run: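 Read-out is intracellular ATP luminescence (CellTiter-Glo) after 72 h at 37 °C of IL-2-driven growth. Cells, pre-stimulated via TCR and CD28 then washed free of IL-2, were resuspended in Yssel's medium, given 80 U/mL IL-2 in the cell suspension plus duplicate compound; unstimulated wells lacked IL-2.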

[3] = tested on: IFNγ induced ICAM-1 (CD54) up-regulation in A549 lung epithelial cells (JAK/Stat pathway); experiment: A549 Epithelial Line Stimulated with IFNγ (ICAM-1 surface expression, flow cytometry); type: cell-based, human; conditions: Table III Example 5
Text: The activity of the compounds of the invention may additionally be characterized by assaying the effect of the 2,4-pyrimidinediamine compounds described herein on A549 lung epithelial cells and U937 cells. A549 lung epithelial cells and U937 cells up-regulate ICAM-1 (CD54) surface expression in response to a variety of different stimuli. Therefore, using ICAM-1 expression as readout, test compound effects on different signaling pathways can be assessed in the same cell type. Stimulation with IL-1β through the IL-1β receptor activates the TRAF6/NFκB pathway resulting in up-regulation of ICAM-1. IFNγ induces ICAM-1 up-regulation through activation of the JAK1/JAK2 pathway. The up-regulation of ICAM-1 can be quantified by flow cytometry across a compound dose curve and EC50 values are calculated. Exemplary assays of this type are described in greater detail in Examples 5 and 6.
A549 lung epithelial cells up-regulate ICAM-1 (CD54) surface expression in response to a variety of different stimuli. Therefore, using ICAM-1 expression as readout, compound effects on different signaling pathways can be assessed in the same cell type. IFNγ up-regulates ICAM-1 through activation of the JAK/Stat pathway. In this example, the up-regulation of ICAM-1 by IFNγ was assessed.
The A549 lung epithelial carcinoma cell line originated from the American Type Culture Collection. Routine culturing was with F12K media (Mediatech Inc., Lenexa, Kans., Cat. No. 10-025-CV) with 10% fetal bovine serum, 100 I.U. penicillin and […] streptomycin (complete F12k media). Cells were incubated in a humidified atmosphere of 5% CO2 at 37° C. Prior to use in the assay, A549 cells were washed with PBS and trypsinized (Mediatech Inc., Cat. No. 25-052-CI) to lift the cells. The trypsin cell suspension was neutralized with complete F12K media and centrifuged to pellet the cells. The cell pellet was resuspended in complete F12K media at a concentration of 2.0×10^5/mL. Cells were seeded at 20,000 per well, 100 μL total volume, in a flat bottom tissue culture plate and allowed to adhere overnight.
On day two, A549 cells were pre-incubated with a 2,4-pyrimidinediamine test compound or DMSO (control) (Sigma-Aldrich, St. Louis, Mo., Catalog No. D2650) for 1 hour. The cells were then stimulated with IFNγ (75 ng/mL) (Peprotech Inc., Rocky Hill, N.J., Cat. No. 300-02) and allowed to incubate for 24 hours. The final test compound dose range was 30 μM to 14 nM in 200 μL F12K media containing 5% FBS, 0.3% DMSO.
On day three, the cell media was removed and the cells were washed with 200 μL PBS (phosphate buffered saline). Each well was trypsinized to dissociate the cells, then neutralized by addition of 200 μL complete F12K media. Cells were pelleted and stained with an APC conjugated mouse anti-human ICAM-1 (CD54) (BD Pharmingen, San Diego, Calif., Catalog #559771) antibody for 20 minutes at 4° C. Cells were washed with ice cold FACS buffer (PBS+2% FBS) and surface ICAM-1 expression was analyzed by flow cytometry. Detection was performed using a BD LSR I System Flow Cytometer, purchased from BD Biosciences of San Jose, Calif. Events were gated for live scatter and the geometric mean was calculated (Becton-Dickinson CellQuest software version 3.3, Franklin Lakes, N.J.). Geometric means were plotted against the compound concentration to generate a dose response curve.

| SMILES | IC50 [1] | IC50 [2] | IC50 [3] |
| --- | --- | --- | --- |
| CCCN(Cc1ccc(Nc2nc(Nc3ccc(S(N)(=O)=O)cc3)ncc2F)cc1)S(=O)(=O)CC [Compound I-17, N2-(4-aminosulfonyl)phenyl-N4-[4-(N-ethylsulfonyl-N-propylamino)methyl]phenyl-5-fluoro-2,4-pyrimidinediamine] | 0.164 µM | 1.07 µM | 8.24 µM |
| CC(C)S(=O)(=O)NCc1ccc(Nc2nc(Nc3ccc(S(N)(=O)=O)cc3)ncc2F)cc1 [Compound I-65, N2-(4-aminosulfonyl)phenyl-5-fluoro-N4-(4-isopropylsulfonylaminomethyl)phenyl-2,4-pyrimidinediamine] | 0.211 µM | 0.634 µM | 10.4 µM |
